Assay results: patent US11472846B2, “Compositions and methods for treating diseases by inhibiting exosome release” (priority 2016, dated 2022)
“Also recorded” adds a separate entry of the source. Like-named read-outs stand apart in the source and are kept apart here.

Legend:
Type in all cases: cell-based, human
[1] = system: non-tumorigenic MCF-10A cells; assay: MTT proliferation assay, MCF-10A; details: 24 hours, up to 1120 nM/mL
Protocol: (§1) 1-3. Viability and proliferation. Human breast cancer cell lines were seeded into 96-well plates (5000 cells/well) and treated for 24 hours with various concentrations of SMR peptides including PEG-SMRwt-Clu, PEG-SMRwt and PEG-SMRmut to determine IC50 (inhibition concentration). Cell proliferation was determined using the MTT assay (Molecular Devices, Sunnyvale, Calif.). Control experiments were performed with MTT treated cells alone and untreated cells, and on this basis, the incubation times of 24 hr and 48 hr were used for an MTT assay of peptide-treated cells (Stockerta JC. et al., 2012 and Riss TL. et al., 2015).
7-4. Cell proliferation and cytotoxicity assay. Human breast cancer cell lines MCF-7, MDAMB-231, and leukemia K562 cells, and non-tumorigenic MCF-10A cells are seeded into 96-well plates (5000 cells/well) and treated for 24 hours with 0-1120 nM SMRwt-CPP or SMRmut-CPP (FIG. 10). Cell proliferation was determined using the MTT [3-(4,5-dimethylthiazol-2-yl)-2,5-diphenyltetrazolium bromide] dye assay by SpectraMax M5 Fluorescence Plate Reader (Molecular Devices. Sunnyvale, Calif.). Cell viability was estimated by the conversion of yellow MTT by mitochondrial dehydrogenases of living cells to purple formazon (MTT assay). […] Statistical significance of results was determined from three independent experiments including triplet or quadruplet sets in each experiment.

[2] = system: MCF-7 breast cancer cells; assay: MTT proliferation assay, MCF-7; details: MCF-7 cells, 24 hours
Protocol: as §1
7-4. Cell proliferation and cytotoxicity assay. Human breast cancer cell lines MCF-7, MDAMB-231, and leukemia K562 cells, and non-tumorigenic MCF-10A cells are seeded into 96-well plates (5000 cells/well) and treated for 24 hours with 0-1120 nM SMRwt-CPP or SMRmut-CPP (FIG. 10). Cell proliferation was determined using the MTT [3-(4,5-dimethylthiazol-2-yl)-2,5-diphenyltetrazolium bromide] dye assay by SpectraMax M5 Fluorescence Plate Reader (Molecular Devices. Sunnyvale, Calif.). Cell viability was estimated by the conversion of yellow MTT by mitochondrial dehydrogenases of living cells to purple formazon (MTT assay). Control experiments were performed with cells treated or untreated with MTT, and on this basis, an incubation time of 24 hours was used for MTT assays of peptide-treated cells (Huang, M. B., et al., Oncotarget, 2017. 8(7): pp. 11302-11315.). Statistical significance of results was determined from three independent experiments including triplet or quadruplet sets in each experiment.

[3] = system: MCF-7 breast cancer cells; assay: Propidium iodide cell cycle analysis (Cellometer), MCF-7; details: MCF-7 cells, 48 hours, 1.12 μM/mL peptide
Protocol: (§2) 1-4. Cell cycle analysis. MCF-7 and MDA-MB-231 breast cancer cells were cultured into 6-well plates at 4×10^5 cells per well and treated with either paclitaxel and cisplatin or combined with PEG-SMRwt-CLU peptide for 24 and 48 hours. Cell cycle analysis was performed using a propidium iodide cell cycle assay and measured using a Cellometer (Nexcelom, MA). […] Breast cancer cells were seeded into 96-well plates at 5×10^3 cells/ml, and treated with either 1.6 μM//mL of paclitaxel, or 3 mg/mL cisplatin, 1.12 μM/mL PEG-SMRwt-CLU peptide, SMR peptide combined with paclitaxel or with cisplatin (MCF-7 cells). Alternatively 1.6 μM/mL paclitaxel or 2 mg/mL cisplatin or 0.28 μM/mL of PEG-SMR-CLU peptide, or the peptide combined with each of these drugs was used for MDA-MB-231 cells. The concentrations for cisplatin and paclitaxel were experimentally determined IC50 dosages for the different cell types (data not shown). At the end of the 24 hr or 48 hr incubations, the cells were assessed by the Cellometry imaging cytometry assay.
(§3) All above steps were done on MCF-7 and MDA-MB-231 cells separately. […]

[4] = system: MDA-MB-231 breast cancer cells; assay: Propidium iodide cell cycle analysis (Cellometer), MDA-MB-231; details: MDA-MB-231 cells, 48 hours, 0.28 μM/mL peptide
Protocol: as §2, §3

[5] = system: MCF-7 breast cancer cells; assay: Exosome nanoparticle tracking analysis (NanoSight NTA), MCF-7; details: MCF-7 cells treated 48 hr; untreated control 5.16×10^9 particles/ml
Protocol: (§4) 1-6. Exosome isolation and purification. Exosomes were isolated from breast cancer cells by differential centrifugation as previously described (Ali SA. et al., 2010). Untreated tumor cells were used as a control. Briefly, the above treated and untreated cell culture supernatants were centrifuged at 400×g for 10 minutes. The supernatants were transferred to a clear tube and centrifuged at 10,000×g for 30 minutes. The supernatants from the second spin were ultracentrifuged at 200,000×g for 2 hours to pellet exosomes. Finally, the exosome pellets were re-suspended with PBS and stored at 4° C. until used for analysis.
(§5) 1-8. Exosome nanoparticle tracking analysis (NTA). Analysis of absolute size distribution of exosomes was performed using NanoSight LM10 with NTA2.3 (NanoSight Ltd., Minton Park, UK). Particles were automatically tracked and sized based on Brownian motion and the diffusion coefficient. After isolation, the untreated and treated breast cancer exosomes were re-suspended in 0.5 mL of PBS. Control medium and filtered PBS were used as controls in this technique. The NTA measurement conditions were: temperature=21.0+/−0.5° C.; viscosity=0.99+/−0.01 cP; frames per second=25; measurement time=30 s. The detection threshold was similar in all samples. Two recordings were performed for each sample.
(§6) 7-11. Exosome nanoparticle tracking analysis (NTA). […]

[6] = system: MDA-MB-231 breast cancer cells; assay: Exosome nanoparticle tracking analysis (NanoSight NTA), MDA-MB-231; details: MDA-MB-231 cells treated 48 hr; control 4.7×10^9 particles/ml
Protocol: as §4, §5, §6

Sequence | effect on proliferation (in words) [1] | IC50 ([2]; MTT, read-out: 50% inhibition of cell growth) | IC50 ([2]; read-out: SMR at IC50 concentration) | cell cycle effect [3] | cell cycle effect [4] | number of exosome particles (NTA) [5] | number of exosome particles (NTA) [6]
VGFPVAAVGFPVGRKKRRQRRRPPQ [SMRwt-CPP] | not affected; also recorded: no effect |  |  |  |  |  | 
NXNVGFPVAAVGFPVHPLSKHPYWSQP (SEQ ID NO: 37) [PEG-SMRwt-Clu] |  | 1.12 µM | 1.12 µM | induced cell cycle arrest | induced cell cycle arrest | 3.28×10^8 particles/ml | 6.8×10^8 particles/ml
